1 molecule from publication PMC8956723, “Secretory quality control constrains functional selection-associated protein structure innovation” (Communications Biology, 2022) can be followed below.

What all share (test): ELISA, CRP binding to immobilised PC-KLH
Common to all, as to settings: PC presented as immobilised KLH conjugate, not free ligand; 2 mM CaCl2, TBS pH 7.4; calcium-dependent
Background: In an ELISA, binding on a coated surface is turned into a signal by an enzyme label.

The target in one assay is T1, human CRP (Homo sapiens, UniProt P02741).
T1 sequence (P02741 19-224): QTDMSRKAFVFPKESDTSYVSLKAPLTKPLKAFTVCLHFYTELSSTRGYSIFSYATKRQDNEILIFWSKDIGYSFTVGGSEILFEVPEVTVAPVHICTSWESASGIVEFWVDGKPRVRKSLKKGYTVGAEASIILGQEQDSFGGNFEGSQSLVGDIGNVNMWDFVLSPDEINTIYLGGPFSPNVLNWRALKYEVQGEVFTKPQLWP

In the next assay the target is T2, mouse CRP (Mus musculus, UniProt P14847).
T2 construct: signal peptide replaced by alpha-factor signal, N-terminal 6xHis tag kept; secreted from Pichia pastoris GS115; homopentamer
T2 sequence (P14847 20-225): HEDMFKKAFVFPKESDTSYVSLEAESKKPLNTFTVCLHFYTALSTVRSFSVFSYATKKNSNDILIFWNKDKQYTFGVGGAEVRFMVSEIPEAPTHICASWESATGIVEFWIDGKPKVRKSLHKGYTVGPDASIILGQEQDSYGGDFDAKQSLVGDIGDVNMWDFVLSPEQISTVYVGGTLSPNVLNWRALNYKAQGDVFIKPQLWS

The target of a further assay is T3, rat CRP (Rattus norvegicus, UniProt P48199).
T3 construct: signal peptide replaced by alpha-factor signal, N-terminal 6xHis tag kept; secreted from Pichia pastoris GS115; homopentamer
T3 sequence (P48199 20-230): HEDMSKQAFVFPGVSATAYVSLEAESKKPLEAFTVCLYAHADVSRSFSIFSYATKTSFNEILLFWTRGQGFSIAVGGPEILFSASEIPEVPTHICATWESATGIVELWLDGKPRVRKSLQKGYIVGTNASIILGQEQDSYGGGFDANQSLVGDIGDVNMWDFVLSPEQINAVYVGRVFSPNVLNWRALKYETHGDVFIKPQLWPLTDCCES

Regarding `C[N+](C)(C)CCOP(=O)([O-])O` [phosphorylcholine], the “ELISA, CRP binding to immobilised PC-KLH” value is “mouse, rat, and human CRP also showed a comparable capacity to bind PC” at human CRP; “mouse, rat, and human CRP also showed a comparable capacity to bind PC” at mouse CRP; “mouse, rat, and human CRP also showed a comparable capacity to bind PC” at rat CRP.
